Literature values in patent US12485133B2, “Inhaled ivermectin” (Hovione Scientia Limited, priority 2021, dated 2025).

What was measured:
[1] = not given; remark: listed apart in the source
[2] = not given; remark: listed apart in the source
SARS-Cov-2 = details: incubated with 5 μM Ivermectin

Q: Which “stability under acidic and basic aqueous conditions” value (acidic and basic aqueous conditions) does the source give for Ivermectin here?
A: Its value is “degrades”.

Q: And the “optimal pH for stability” value (aqueous conditions)?
A: Its value is 6.3.

Q: And the “solid state stability (degradation in drug substance batches)” value (solid state, 37° C. for 1.5 years)?
A: The value was “no degradation observed”.

Q: What about the “Log P” value [1] of the same substance?
A: Its value is 4.4.

Q: What about the “solubility in non-polar aprotic solvents such as hexane” value ([2]; hexane) of the same substance?
A: Its value is “completely insoluble”.

Q: What about the “solubility in methanol and 95% ethanol” value ([2]; methanol, 95% ethanol) of the same substance?
A: The value was “freely soluble”.

Q: And the solubility in water ([2]; water)?
A: The solubility in water was < 1 µg/mL.

Q: What about the “time to eliminate the virus from supernatant and infected cells” value (SARS-Cov-2) of the same substance?
A: Its value is ≤ 48 h.
